Measured values reported in ChEMBL document CHEMBL1201862, “PubChem BioAssay data set” (2004).
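Interpolation was linear, between the two tested concentrations surrounding the appropriate level; five concentrations were tested over 48 hours in 96-well plates. GI50 marks 50% less growth.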 Active and inactive are the calls of the source. Rule as the data show it: active = GI50 up to about 1.1 µM and inactive = higher.

Columns and labels:
Test in all cases: inhibition of tumour cell growth, NCI panel, 48 h
MCF7 = tested on: MCF7
SK-MEL-28 = tested on: SK-MEL-28
TK-10 = tested on: TK-10
SN12C = tested on: SN12C
M14 = tested on: M14
CCRF-CEM = tested on: CCRF-CEM
PC-3 = tested on: PC-3
KM12 = tested on: KM12
Malme-3M = tested on: Malme-3M
HL-60 = tested on: HL-60
T47D = tested on: T47D
UO-31 = tested on: UO-31
HCT-15 = tested on: HCT-15
A498 = tested on: A498
SW-620 = tested on: SW-620
HCT-116 = tested on: HCT-116
NCI/ADR-RES = tested on: NCI/ADR-RES
ACHN = tested on: ACHN
SK-OV-3 = tested on: SK-OV-3

Row | SMILES | GI50 (MCF7) | GI50 (SK-MEL-28) | GI50 (TK-10) | GI50 (SN12C) | GI50 (M14) | GI50 (CCRF-CEM) | GI50 (PC-3) | GI50 (KM12) | GI50 (Malme-3M) | GI50 (HL-60) | GI50 (T47D) | GI50 (UO-31) | GI50 (HCT-15) | GI50 (A498) | GI50 (SW-620) | GI50 (HCT-116) | GI50 (NCI/ADR-RES) | GI50 (ACHN) | GI50 (SK-OV-3)
1 | COC(=O)C1(C)CC2C(C)(CCC3(C)C4=CC=C5C(=CC(=O)C(O)=C5C)C4(C)CCC23C)CC1O (stereo unspecified) | 1.6 µM (inactive) | 0.521 µM (active) | 0.624 µM (active) | 1.49 µM (inactive) | 1.26 µM (inactive) | 0.157 µM (active) | 1.13 µM (inactive) | 1.57 µM (inactive) | 0.762 µM (active) | 0.216 µM (active) | 0.495 µM (active) | 1.35 µM (inactive) | 0.334 µM | 1.93 µM (inactive) | 0.405 µM (active) | 0.564 µM (active) | 1.06 µM (active) | 0.45 µM (active) | 2.07 µM (inactive)
2 | Cc1ccc2c(=O)c(C(=O)NNC(=S)NC3CCCCC3)c[nH]c2n1 | 83.6 µM (inactive) | 77.8 µM (inactive) | > 100 µM (inactive) | 78.7 µM (inactive) | 53.2 µM (inactive) | 99.5 µM (inactive) | 45.4 µM (inactive) | 56.8 µM (inactive) | 65.8 µM (inactive) | 46.9 µM (inactive) | 46.9 µM (inactive) | > 100 µM (inactive) | > 100 µM | > 100 µM (inactive) | 40.6 µM (inactive) | 99.5 µM (inactive) | > 100 µM (inactive) | 96.4 µM (inactive) | 
3 | O=CC(=C(I)I)c1ccccc1 | 3.11 µM (inactive) | 2.64 µM (inactive) | 2.45 µM (inactive) | 2.28 µM (inactive) | 1.75 µM (inactive) | 0.2 µM (active) | 3.7 µM (inactive) | 3.87 µM (inactive) | 2.15 µM (inactive) | 0.0635 µM (active) | 3.55 µM (inactive) | 2.69 µM (inactive) | 1.82 µM | 21.6 µM (inactive) | 0.728 µM (active) | 0.855 µM (active) | 14.6 µM (inactive) | 3 µM (inactive) | 15.9 µM (inactive)
4 | COc1cc(C2c3cc4c(cc3OC(NCCO)C2C)OCO4)cc(OC)c1OC (stereo unspecified) | 0.344 µM (active) | 0.713 µM (active) | 15.9 µM (inactive) | 0.658 µM (active) | 0.27 µM (active) | 0.197 µM (active) | 0.418 µM (active) | 0.382 µM (active) | 0.431 µM (active) | 0.309 µM (active) | > 74.3 µM (inactive) | 1.52 µM (inactive) | 0.347 µM | 0.325 µM (active) | 0.326 µM (active) | 0.364 µM (active) | 0.807 µM (active) | 0.755 µM (active) | 0.553 µM (active)
5 | COc1cc([N+](=O)[O-])c(OC)c2c(Nc3ccc(S(=O)(=O)O)c4cc(S(=O)(=O)O)cc(S(=O)(=O)O)c34)cc(C)nc12 | > 100 µM (inactive) | > 100 µM (inactive) | > 100 µM (inactive) | > 100 µM (inactive) | > 100 µM (inactive) | > 100 µM (inactive) | > 100 µM (inactive) | > 100 µM (inactive) | > 100 µM (inactive) | > 100 µM (inactive) | > 100 µM (inactive) | > 100 µM (inactive) |  | > 100 µM (inactive) | > 100 µM (inactive) | > 100 µM (inactive) | > 100 µM (inactive) |  | > 100 µM (inactive)
6 | CC(NP(=O)(c1ccccc1)c1ccccc1)c1ccccc1 (stereo unspecified) | > 100 µM (inactive) | > 100 µM (inactive) | > 100 µM (inactive) | > 100 µM (inactive) | > 100 µM (inactive) | > 100 µM (inactive) | > 100 µM (inactive) | > 100 µM (inactive) | > 100 µM (inactive) | > 100 µM (inactive) | > 100 µM (inactive) | > 100 µM (inactive) | > 100 µM | > 100 µM (inactive) | > 100 µM (inactive) | > 100 µM (inactive) | > 100 µM (inactive) | > 100 µM (inactive) | > 100 µM (inactive)
7 | NCCNCCCCCCNC(=O)c1cccc2cc3ccccc3nc12 | 1.1 µM (active) | 5.65 µM (inactive) | 8.51 µM (inactive) | 2.42 µM (inactive) | 1.92 µM (inactive) | 1.03 µM (active) | 2.99 µM (inactive) | 2 µM (inactive) | 3.94 µM (inactive) | 1.39 µM (inactive) | 5.13 µM (inactive) | 5.66 µM (inactive) | 12.6 µM | 2.43 µM (inactive) | 1.49 µM (inactive) | 2.15 µM (inactive) | 17.9 µM (inactive) | 2.28 µM (inactive) | 
8 | COc1cccc2c1NC(=O)Cc1c-2[nH]c2ccccc12 | 88.5 µM (inactive) | 30.8 µM (inactive) | > 100 µM (inactive) |  | > 100 µM (inactive) | > 100 µM (inactive) | > 100 µM (inactive) | 46.9 µM (inactive) | > 100 µM (inactive) | > 100 µM (inactive) | 40.6 µM (inactive) | > 100 µM (inactive) | 73.8 µM | > 100 µM (inactive) | > 100 µM (inactive) |  | 82.2 µM (inactive) | > 100 µM (inactive) | > 100 µM (inactive)
